Experimental data reported in PubChem BioAssay (NCI).
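Step 1: Grow cells in 96-well plates. Step 2: Expose to compound for 48 hours at 5 concentrations. Step 3: Interpolate endpoints linearly; if unreached, use highest concentration. TGI is the concentration that stops growth completely.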

Tests used:
Test in all cases: NCI anticancer screen, dose series, 48 h
[1] = test system: MDA-MB-435
[2] = test system: SW-620 colon
[3] = test system: HCT-15 colon
[4] = test system: HCT-116 colon
[5] = test system: SF-295 CNS
[6] = test system: COLO 205 colon
[7] = test system: SNB-75 CNS
[8] = test system: UO-31 renal
[9] = test system: ACHN renal
[10] = test system: T-47D breast
[11] = test system: IGROV1 ovarian
[12] = test system: MDA-N
[13] = test system: HT29 colon
[14] = test system: BT-549 breast
[15] = test system: OVCAR-4 ovarian
[16] = test system: HOP-62 NSCLC
[17] = test system: RXF 393 renal
[18] = test system: CCRF-CEM leukemia
[19] = test system: MOLT-4 leukemia
[20] = test system: M14 melanoma

Compound	TGI [1] [µM]	TGI [2] [µM]	TGI [3] [µM]	TGI [4] [µM]	TGI [5] [µM]	TGI [6] [µM]	TGI [7] [µM]	TGI [8] [µM]	TGI [9] [µM]	TGI [10] [µM]	TGI [11] [µM]	TGI [12] [µM]	TGI [13] [µM]	TGI [14] [µM]	TGI [15] [µM]	TGI [16] [µM]	TGI [17] [µM]	TGI [18] [µM]	TGI [19] [µM]	TGI [20] [µM]
O=C(OCc1ccccc1)N(CCCCN(CCCNCc1ccccc1)C(=O)OCc1ccccc1)CCCNCc1ccccc1	0.335	0.39	1.17	0.384	> 100	0.33	2.69	2.75	2.93	3.57	2.05	0.983	0.663							
Cc1cccc(-c2cc(=O)c3c(C)cc(C)nc3[nH]2)c1		> 19.7	> 56	> 39.1	> 63.8	8.16	7.36	> 100	> 100	> 100	> 100		19.1	30.2	> 100	> 100	> 100	> 86.5	> 100	> 100
COc1cccc(NC(=O)C(=O)C(C(=O)c2ccccc2F)C2OC(=O)c3ccccc32)c1 (configuration not stated)		> 100	> 100	46.1	> 100	39.5	70.9	> 100	> 100		> 100		> 100		> 100	> 100	63.6	62.3	> 100	> 100
COc1ccccc1/C=C1\NC(=S)N(/C=C2\C(=O)Oc3ccccc3C2=O)C1=O	> 100	> 100	> 100	> 100	> 100	> 100	> 100	82.9	> 100		> 100		> 100	> 100	> 100	> 100	> 100	76.5	72.6	> 100
CCCCCC/C=C1\CCC(CN2CCOCC2)C1=O (configuration not stated)		26.7	25.9	27.7	39.3	32.3	42.3	27.5	31.2		36.6		34.2		38.8	32.8		> 25.4	18.1	28.1
NC12CCC(CC1=O)C2 (configuration not stated)	> 100	> 100	> 100	> 100	> 100	> 100	> 100	> 100	> 100	> 100	> 100	> 100	> 100		> 100	> 100		> 100	> 100	> 100
O=C(NCCNCCCNC(=O)c1cc(-c2ccccc2)nc2ccccc12)c1cccc(OCc2ccccc2)c1OCc1ccccc1	3.04	3.35	3.25	3.13	3.03	3.11	3.39	3.03	3.11	4.2	3.44	3.05	2.98		3.03	3.01		3.47	3.51	3.1
COC1(O)c2cccc(Cl)c2C(=O)N1C1(C(N)=O)CCCCC1 (configuration not stated)		> 100	> 100	> 100	> 100	> 100	> 100	> 100			> 100		> 58		> 100	> 100	> 100	> 100	> 100	
COC(=O)[C@H](Cc1ccc(OC(C)(C)C)cc1)N[C@H](C)C(=O)N[C@@H](Cc1ccccc1)C(=O)OCc1ccccc1	> 100	> 100	> 100	> 100	> 100	> 100	> 100	43.7	> 100		> 100	> 100	> 100		> 100	> 100	> 100	> 100	50	> 100
O=c1[nH]c(=O)n(C2OC(CO)C(O)C2O)cc1Oc1ccccc1 (configuration not stated)	> 100	> 100	> 100	> 100	> 100	> 100	> 100		> 100	> 100	> 100	> 100	> 100		> 100	> 100	> 100	> 100	> 100	> 100
COc1ccc(C2C3CCc4ccccc4C3=NN2S(=O)(=O)c2ccc(/C=C/C(=O)O)cc2)cc1 (configuration not stated)	2.69	> 100	0.717	38.2	9.08	7.43		38	14.1	> 100	4.91		13.6	> 100	54.1	> 100	31.4	22.9	25.3	> 100
O=C(O)C12CCCCC1CCCC2 (configuration not stated)		> 100	> 100	> 100	> 100	> 100	> 100		> 100		> 100		> 100		> 100	> 100		> 100	> 100	> 100
CC(C)(CCCCC(C)(C)[N+](C)(C)C)[N+](C)(C)C	> 100	> 100	> 100	> 100		> 100	> 100	> 100		> 100	> 100	> 100	> 100		> 100	> 100		> 100	> 100	> 100
O=C1C(Cl)N(c2cccc([N+](=O)[O-])c2)C1c1c[nH]c2ccccc12 (configuration not stated)		> 100		44.6	35.1	41.8	47.2	47.9			69.8		43.7		33.7	33.6	27	65.7	> 100	33
CCOP(=O)(OCC)/C(C#N)=C/c1cnc[nH]1	> 100	> 100	> 100	> 100	> 100	> 100	> 100	> 100	> 100		> 100		> 100	> 100	> 100	> 100	> 100	> 100	> 100	> 100
CC(=O)NC(Cc1ccsc1)C(=O)O (configuration not stated)		> 100	> 100	> 100	> 100	> 100	> 100	> 100			> 100		> 100		> 100	> 100	> 100	> 100	> 100	
CSC12c3cc(C)n(-c4ccccc4)c3CC(C)(C)CN1C(=O)C2Oc1ccccc1 (configuration not stated)	> 100	> 100	> 100	> 100	> 100	> 100	> 100	> 100	> 100	> 100	> 100			> 100	> 100	> 100	> 100	> 100	> 100	> 100
CC(C)(C)C1=CC(=C2C(=O)C(=O)c3ccccc3C2=O)C=C(C(C)(C)C)C1=O		> 100	> 100	> 100	> 100	> 100	> 100	> 100	> 100		> 100		> 100			> 100		> 100		> 100
Cc1cc(S(=O)(=O)/N=C(/[N-]S(=O)(=O)c2ccc(Cl)cc2)[n+]2ccc(N(C)C)cc2)c(SCC(=O)O)cc1Cl	> 100	> 100	> 100	> 100	> 100	> 100	> 100	> 100	> 100	> 100			> 100	> 100	> 100	46.2	> 100	> 100	> 100	> 100
Cc1c2ccncc2c(C)c2c1[nH]c1ccc(OCC(F)(F)F)cc12		1.99	2.56		3.01	3.18	3.65	3.16	2.88		3.03		3.11		3.48	3.03	3.46	4.9	3.26	3.39
COc1cc(C2C(Cl)C(=O)N2NC(=O)c2ccc(N)cc2)cc(Br)c1O (configuration not stated)		35.1	28.8	22.3	27.7	33.4	33.3	35.6	45.1		34		41.9		35.1	28.9		12.1	20	29.2
CC(=O)C1=C(C)N(c2ccc(C)cc2)C2(O)C3=C(C(=O)c4ccccc4C3=O)C(O)=CC12Cl (configuration not stated)	14.3	> 100	> 100	> 100	37.3	63.9	> 100	34.6	> 100	69.1	52.6		60.1	45.9	> 100	> 100	50.8		> 100	> 100
Fc1ccc(-c2sc(-c3cccs3)cc2Cc2cccs2)cc1	> 100	> 100	> 100	> 100	> 100	> 100	> 100	> 100	> 100	> 100	> 100		> 100	> 100	> 100		> 100	> 100	> 100	> 100
COC(=O)C(C/C=C(\C)c1ccc(Cl)cc1)C(C)=O (configuration not stated)		> 100	> 100	> 100	> 100	> 100	> 94.6	85.4			> 100		> 77.1		> 100	> 100	> 95.9	> 100	41.2	
O=Cc1ccc(CCl)cc1		52.1	31.9	29.1	32	> 100		34.8	54		46.3		34.2				31	> 100	> 100	33.4
Nc1nc2c(ncn2Cc2ccccc2CO)c(=O)[nH]1	> 100	> 100	> 100	> 100	> 100	> 100	> 100	> 100	> 100	> 100	> 100		> 100	> 100	> 100	> 100		> 100	> 100	> 100
CSc1nc2c(ncn2C2OCC(O)C(O)C2O)c(=O)n1C (configuration not stated)		> 100	> 100	> 100	> 100	> 100	> 100	> 100			> 100		> 100		> 100	> 100	> 100	> 100	> 100	
CN1CCC2(CC1)C(=NC1CCCCC1)NC(=S)N2c1ccccc1	> 100	> 100	> 100	> 100	> 100	> 100	> 100	> 100	> 100	> 100	> 100		> 100		> 100	> 100	> 100	> 100	> 100	> 100
